# Assay results as given in patent publication US6177405A, “Cyclic analogs of tuftsin” (priority 1992, dated 2001).
# Residues, ends and D or L forms follow the SMILES beside them.
# Key:
# Type in all cases: cell-based
# human NK cells = test: Tumor cell cytotoxicity assay by human NK cells (4 hour 51Cr release, K-562 targets); settings: effector:target ratios of 25:1 and 50:1, peptide concentration 1 μg/ml, FIG. 3
# Description: Tumor Cell Cytotoxicity Assay by Human NK Cells
# Heparinized blood was layered over Leukoprep tube (30 ml per tube), and centrifuged. The mononuclear cells at interphase were collected, washed with HBSS, suspended in RPMI-1640 medium with 10% FBS (15 ml per 30 ml starting blood), plated on Petri dishes, and incubated for 1 hour. Non-adherent cells were collected, suspended in RPMI-1640 medium with 5% FBS, and adjusted to 1×10^6 /ml for 4 hour ^51 Cr release assay. The viability of this NK cell enriched fraction was assessed with trypan blue.
# The tumor target cells, K-562, were harvested from culture, washed with RPMI-1640 medium with 5% FBS, and centrifuged. Pelleted cells of 2×10^6 K-562 were suspended into 0.2 ml of 100 μCi of ^51 CrO4 in saline, and labelled for 90 min in the incubator. The labelled target cells were washed with RPMI-1640 medium with 5% FBS, suspended in the same medium, and adjusted to a suspension of 2×10^5 /ml. […] Filters containing radioactive supernatants were counted on a γ counter, and counts per minutes (cpm) were recorded. Percent cytotoxicity (% specific lysis) was calculated by the following formula: […]
# Spontaneous cpm was obtained by incubating the tumor target cells alone in the medium. Maximum cpm was obtained by releasing the radioactivity from the target cells by treatment with Triton X-100. […]
# [1] = tested on: THP-1 (human acute monocytic leukemia) cell line; test: Thymidine incorporation assay (growth stimulation effect); settings: THP-1 cells, at 0.001 and 10 μg/ml; FIG. 2
# Description: Thymidine Incorporation Assay
# THP-1 (a human acute monocytic leukemia line) cells were subcultured in RPMI-1640 medium with 10% FBS. Next day THP-1 cells were collected, washed with RPMI-1640 medium with 2% FBS, and plated into well with peptide (1×10^6 cell in 1 ml). The plate was incubated for 18 hours. ^3 H-thymidine (0.1 μCi per well) was then introduced. The plate was incubated for another hour. The cells were collected into a tube using 1 ml of cold HBSS. After washing the cells twice, the cells were mixed with 0.2 ml of 0.1% sodium dodecyl sulfate, and transferred to a liquid scintillation vial for determination of radioactivity. The mean values from triplicates were used to calculate percent increase over control mean value.
# To examine the growth stimulating effect of peptides, a thymidine incorporation experiment was performed using THP-1 (human acute monocytic leukemia) cell line.
# [2] = tested on: Human polymorphonuclear leukocytes (PMNs); test: Phagocytosis assay (fluorescent microspheres engulfed per PMN)
# Description: Phagocytosis Assay Human polymorphonuclear leukocytes (PMNs) were prepared from venous blood of healthy donors. Heparinized blood was mixed with dextran and kept at 37° C. for 1 hour. The leukocyte-rich plasma was collected and centrifuged. The resulting pellet was washed with Hank's balanced salt solution (HBSS). The pellet was then suspended into HBSS, layered over Lymphocyte Separation Medium (LSM) and centrifuged. The sedimented cells were washed with HBSS. Contaminant erythrocytes were lysed by suspending the cells in sterile water for 15 seconds. The isotonicity was then restored by adding 10× HBSS. After centrifuging, the PMNs were washed with HBSS, suspended in the same medium, counted, and adjusted to 1×10^6 viable cells/ml (viability>95% by trypan blue dye exclusion). Cells (0.5×10^6 /well) were plated in 24 well plate and placed in a 37° C. CO2 incubator for 30 min to form a monolayer. Thereafter the supernatant was aspirated. Tuftsin or analog in 250 μl HBSS and 2.5×10^7 fluorescent microspheres (2 μm diameter) in 250 μl HBSS, were added to each well resulting in a particle to PMN ratio of 50:1, mixed, and incubated for 15 min. The supernatant was then quickly aspirated and each well washed with HBSS. One ml of trypsin (0.25% in saline) was added to each well and the plate incubated for 15 min to detach the cells and remove non-engulfed particles associated on the surface of PMN. The cells were transferred, layered over 2 ml fetal bovine serum (FBS), and centrifuged. The supernatant containing free particles were removed. The cell pellet was suspended, fixed in 2% paraformaldehyde, and plated again into a well. After 10 min, particles engulfed per PMN were counted under a microscope (100 cells per well). The mean values from triplicates were used to calculate percent phagocytosis increase over control mean value. Using purified cyclo[[…]] (SEQ ID no. 1) as an example, we have examined in vitro biological activities of this peptide. A phagocytosis assay was performed to compare the activity of cyclo[[…]] (SEQ ID no. 1) to that of tuftsin. The optimum concentration of tuftsin in this assay is 5 μg/ml. However, the optimum concentration for cyclo[[…]]
smiles,measurement,setting,value
C[C@@H](O)[C@@H]1NC(=O)CNC(=O)[C@H](CCCNC(=N)N)NC(=O)[C@@H]2CCCN2C(=O)[C@H](CCCCN)NC1=O [cyclo[Thr-Lys-Pro-Arg-Gly]] (cyclo(GTKPR)),enhancement of NK tumor cell cytotoxicity compared with tuftsin,human NK cells,significantly greater cytotoxicity
same,growth stimulating activity (3H-thymidine incorporation) compared with tuftsin,[1],significantly greater activities than tuftsin
same,extent of phagocytosis compared with tuftsin at 5 μg/ml,[2]; 0.1 μg/ml of cyclic peptide vs 5 μg/ml of tuftsin,no significant difference
same,potency in phagocytosis assay compared with tuftsin,"[2]; at lower concentrations of 0.01 and 0.1 μg/ml, Student t-test, FIG. 1",significantly superior potency over tuftsin
same,optimum concentration in phagocytosis assay,"[2]; human PMNs, 15 min incubation, particle to PMN ratio 50:1, FIG. 1",0.1 µg/mL
same,"optimum concentration, fold lower than tuftsin","[2]; phagocytosis assay, human PMNs",50 fold
